Where two headings read alike, the source gives them in different places.
Legend:
E. faecalis = assay: MIC against E. faecalis; type: cell-based; conditions: Table 8
Procedure: The MRS inhibitor 4 alone and in combination with mupirocin (mupirocin salt and 1:1 combination) were tested against a collection of Gram-positive pathogens.
(§1) MRSi compound 5 alone and in combination with mupirocin was tested recent clinical isolates of E. faecalis (n=28) and E. faecium (n=23). Both the acetate salt and mupirocinate salts of MRSi compound 5 maintained potent activity against vancomycin-susceptible and—resistant enterococci (Tables 8, 9, and 10).

E. faecium = assay: MIC against E. faecium; type: cell-based; conditions: Table 8, E. faecium ATCC 33667
Procedure: as §1

S. aureus = assay: MIC against S. aureus strains and clinical isolates (broth microdilution); type: cell-based, Staphylococcus aureus
Procedure: were tested against a collection of clinical isolates of S. aureus including strains that were multi-resistant to mupirocin and to other agents such as gentamicin and oxacillin.
The acetate and mupirocin salts of the MRS inhibitor compound 5 were tested against a collection of both low and high-level mupirocin resistant clinical isolates of S. aureus (Table 6).
The bacterial strains were tested for susceptibility to mupirocin and MRSi compound 2 using the broth microdilution method in accordance with NCCLS guideline to determine their MICs.
Briefly, the MIC and checkerboard titration assays were performed with strains in microtiter trays with cation-supplemented Mueller-Hinton broth (Difco). Inocula were prepared by suspending growth from blood agar plates in sterile saline to a density equivalent to that of a 0.5 McFarland standard and were diluted […] to produce a final inoculum of 5×10^5 CFU/ml. The trays were incubated aerobically overnight. Standard quality control strains were included with each run. Fractional inhibitory concentrations (FICs) were calculated as the MIC of drug A or B in combination/MIC of drug A or B alone, and the FIC index was obtained by adding the two FICs. FIC indices were interpreted as synergistic if the values were ≦0.5, additive or indifferent if the values were >0.5 to 4, and antagonistic if the values were >4.0.

[1] = S. aureus 10-420 (LL Mup. Rest.)
[2] = S. aureus 14-354 (LL Mup. Rest.)
[3] = S. aureus 25-670 (HL Mup. Rest.)
[4] = S. aureus 31-1334 (LL Mup Rest.)
[5] = S. aureus 36-1298 (LL Mup. Rest.)
[6] = S. aureus 87-2797 (HL Mup. Rest.)
[7] = S. aureus NRS107 (HL Mup rest.)
[8] = all S. aureus strains of Table 1

CC1(C)S[C@@H]2[C@H](NC(=O)[C@H](N)c3ccccc3)C(=O)N2[C@H]1C(=O)O [Ampicillin, reference compound]
0.5 µg/mL: MIC (E. faecalis; Enterococcus faecalis, ATCC 51299 / VRE, E. faecalis ATCC 51299 (VRE), read-out: MIC) | MIC (E. faecalis; Enterococcus faecalis, E. faecalis 1, read-out: MIC) | MIC (E. faecalis; Enterococcus faecalis, E. faecalis 7, read-out: MIC)
1 µg/mL: MIC (E. faecium; Enterococcus faecium, ATCC33667, read-out: MIC)

O=c1cc(NCCCNC2CCNc3c(Br)cc(Br)cc32)[nH]c2ccccc12 (centres unmarked) [MRSi cmpd 1, 2-[3-(6,8-Dibromo-2,3,4,5-tetrahydroquinolin-4-ylamino)prop-1-ylamino]-1H-quinolin-4-one]
0.015 µg/mL: MIC (E. faecalis; E. faecalis 7) | MIC (E. faecalis; E. faecalis ATCC 51299 (VRE)) | MIC (S. aureus; [5])
0.03 µg/mL: MIC (S. aureus; [7])
0.015 to 0.12 µg/mL: MIC Range (S. aureus; all S. aureus strains of Table 1 (mupirocin-susceptible and -resistant))
0.12 µg/mL: MIC (S. aureus; [1]) | MIC (S. aureus; [3]) | MIC (S. aureus; [4]) | MIC (S. aureus; [6]) | MIC (S. aureus; S. aureus 87-2797 (Mup. Susc.)) | MIC (S. aureus; S. aureus LZ6 (HL Mup rest.)) | MIC (S. aureus; S. aureus LZ10) | MIC (S. aureus; S. aureus Miles Hall) | MIC (S. aureus; S. aureus NRS1 (VISA)) | MIC (S. aureus; S. aureus Oxford)
0.06 µg/mL: MIC (S. aureus; S. aureus 101-100 (Mup. Susc.)) | MIC (S. aureus; S. aureus LZ1 (HL Mup rest.)) | MIC (S. aureus; S. aureus LZ8 (LL Mup. Rest.)) | MIC (S. aureus; S. aureus LZ9)
≦0.004 μg/mL: MIC (E. faecalis; E. faecalis 1) | MIC (E. faecium)
0.25 µg/mL: MIC (S. aureus; [2]) | MIC (S. aureus; S. aureus ATCC 43300 (ORSA)) | MIC90 (S. aureus; [8])

Gentamicin
64 µg/mL: MIC (S. aureus; [1]) | MIC (S. aureus; [4]) | MIC (S. aureus; S. aureus LZ8 (LL Mup. Rest.)) | MIC (S. aureus; S. aureus LZ9) | MIC (S. aureus; S. aureus LZ10)
0.12 µg/mL: MIC (S. aureus; S. aureus 101-100 (Mup. Susc.))
>64 µg/mL: MIC (S. aureus; [2]) | MIC (S. aureus; [3]) | MIC (S. aureus; S. aureus NRS1 (VISA)) | MIC90 (S. aureus; [8])
0.25 µg/mL: MIC (S. aureus; [6]) | MIC (S. aureus; S. aureus 87-2797 (Mup. Susc.)) | MIC (S. aureus; S. aureus LZ6 (HL Mup rest.)) | MIC (S. aureus; [7])
0.5 µg/mL: MIC (S. aureus; [5]) | MIC (S. aureus; S. aureus LZ1 (HL Mup rest.)) | MIC (S. aureus; S. aureus Miles Hall) | MIC (S. aureus; S. aureus Oxford)
4 µg/mL: MIC (S. aureus; S. aureus ATCC 43300 (ORSA))

Cc1onc(-c2ccccc2)c1C(=O)N[C@@H]1C(=O)N2[C@@H]1SC(C)(C)[C@@H]2C(=O)O [Oxacillin]
16 µg/mL: MIC (S. aureus; Staphylococcus aureus, S. aureus 10-420 (LL Mup. Rest.), read-out: MIC) | MIC (S. aureus; Staphylococcus aureus, S. aureus 101-100 (Mup. Susc.), read-out: MIC)
2 µg/mL: MIC (S. aureus; Staphylococcus aureus, NRS 18 / VISA, VISA, S. aureus NRS18 (HIP06854), read-out: MIC)
0.12 µg/mL: MIC (S. aureus; Staphylococcus aureus, NRS107, S. aureus NRS107 (HL Mup rest.), read-out: MIC) | MIC (S. aureus; Staphylococcus aureus, NRS107, Table 6, high-level mupirocin-resistant S. aureus NRS107, read-out: MIC) | MIC (S. aureus; Staphylococcus aureus, Table 6, low-level mupirocin-resistant S. aureus Miles Hall, read-out: MIC)
8 µg/mL: MIC (S. aureus; Staphylococcus aureus, Table 6, S. aureus (mupirocin-susceptible) 010-100, read-out: MIC) | MIC (S. aureus; Staphylococcus aureus, Table 6, high-level mupirocin-resistant S. aureus 010-420, read-out: MIC) | MIC (S. aureus; Staphylococcus aureus, Table 6, low-level mupirocin-resistant S. aureus 036-1298, read-out: MIC) | MIC (S. aureus; Staphylococcus aureus, Table 6, low-level mupirocin-resistant S. aureus 1081148, read-out: MIC)
0.015 µg/mL: MIC (S. aureus; Staphylococcus aureus, S. aureus Oxford, read-out: MIC)
0.25 µg/mL: MIC (S. aureus; Staphylococcus aureus, S. aureus 36-1298 (LL Mup. Rest.), read-out: MIC) | MIC (S. aureus; Staphylococcus aureus, S. aureus Miles Hall, read-out: MIC) | MIC (S. aureus; Staphylococcus aureus, Table 6, high-level mupirocin-resistant S. aureus 1079101, read-out: MIC)
4 µg/mL: MIC (S. aureus; Staphylococcus aureus, ATCC43300, S. aureus ATCC 43300 (ORSA), read-out: MIC)
32 µg/mL: MIC (S. aureus; Staphylococcus aureus, NRS 24 / VISA, VISA, S. aureus NRS24 (HIP09143), read-out: MIC)
64 µg/mL: MIC (S. aureus; Staphylococcus aureus, NRS 4 / VISA, VISA, S. aureus NRS4 (HIP5836), read-out: MIC) | MIC (S. aureus; Staphylococcus aureus, NRS127, Table 6, low-level mupirocin-resistant S. aureus NRS127, read-out: MIC) | MIC (S. aureus; Staphylococcus aureus, Table 6, low-level mupirocin-resistant S. aureus 031-1334, read-out: MIC)
> 64 µg/mL: MIC (S. aureus; Staphylococcus aureus, NRS 1 / VISA, S. aureus NRS1 (VISA), read-out: MIC) | MIC (S. aureus; Staphylococcus aureus, NRS 1 / VISA, VISA, S. aureus NRS1 (Mu50), read-out: MIC) | MIC (S. aureus; Staphylococcus aureus, NRS 3 / VISA, VISA, S. aureus NRS3 (HIP5827), read-out: MIC) | MIC (S. aureus; Staphylococcus aureus, NRS 49 / VISA, VISA, S. aureus NRS49 (Korea), read-out: MIC) | MIC (S. aureus; Staphylococcus aureus, NRS54, Table 6, high-level mupirocin-resistant S. aureus NRS54, read-out: MIC) | MIC (S. aureus; Staphylococcus aureus, NRS 54 / VISA, VISA, S. aureus NRS54 (Brazil), read-out: MIC) | MIC (S. aureus; Staphylococcus aureus, NRS 56 / VISA, VISA, S. aureus NRS56 (Brazil), read-out: MIC) | MIC (S. aureus; Staphylococcus aureus, S. aureus 14-354 (LL Mup. Rest.), read-out: MIC) | MIC (S. aureus; Staphylococcus aureus, S. aureus 25-670 (HL Mup. Rest.), read-out: MIC) | MIC (S. aureus; Staphylococcus aureus, S. aureus 31-1334 (LL Mup Rest.), read-out: MIC) | MIC (S. aureus; Staphylococcus aureus, S. aureus 87-2797 (HL Mup. Rest.), read-out: MIC) | MIC (S. aureus; Staphylococcus aureus, S. aureus 87-2797 (Mup. Susc.), read-out: MIC) | MIC (S. aureus; Staphylococcus aureus, S. aureus LZ1 (HL Mup rest.), read-out: MIC) | MIC (S. aureus; Staphylococcus aureus, S. aureus LZ6 (HL Mup rest.), read-out: MIC) | MIC (S. aureus; Staphylococcus aureus, S. aureus LZ8 (LL Mup. Rest.), read-out: MIC) | MIC (S. aureus; Staphylococcus aureus, S. aureus LZ9, read-out: MIC) | MIC (S. aureus; Staphylococcus aureus, S. aureus LZ10, read-out: MIC) | MIC (S. aureus; Staphylococcus aureus, Table 6, S. aureus (mupirocin-susceptible) 087-2789, read-out: MIC) | MIC (S. aureus; Staphylococcus aureus, Table 6, S. aureus (mupirocin-susceptible) LZ9, read-out: MIC) | MIC (S. aureus; Staphylococcus aureus, Table 6, S. aureus (mupirocin-susceptible) LZ10, read-out: MIC) | MIC (S. aureus; Staphylococcus aureus, Table 6, high-level mupirocin-resistant S. aureus 25-670, read-out: MIC) | MIC (S. aureus; Staphylococcus aureus, Table 6, high-level mupirocin-resistant S. aureus 87-2797, read-out: MIC) | MIC (S. aureus; Staphylococcus aureus, Table 6, high-level mupirocin-resistant S. aureus LZ1, read-out: MIC) | MIC (S. aureus; Staphylococcus aureus, Table 6, high-level mupirocin-resistant S. aureus LZ6, read-out: MIC) | MIC (S. aureus; Staphylococcus aureus, Table 6, low-level mupirocin-resistant S. aureus 014-354, read-out: MIC) | MIC (S. aureus; Staphylococcus aureus, Table 6, low-level mupirocin-resistant S. aureus LZ8, read-out: MIC) | MIC50 (S. aureus; Staphylococcus aureus, all S. aureus isolates of Table 6, read-out: MIC50) | MIC90 (S. aureus; Staphylococcus aureus, all S. aureus isolates of Table 6, read-out: MIC90) | MIC90 (S. aureus; Staphylococcus aureus, all S. aureus strains of Table 1, read-out: MIC 90)
